Laboratory results published in article PMC12527922, “Cocaine chemogenetics blunts drug-seeking by synthetic physiology” (Nature, 2025).
Values joined by “and” are separate entries in the source; they are usually repeats but may differ in a detail not shown here. Identical values can stand only once.

Key:
[1] = molecular target: T1, coca-GlyR (α7(L141G,G175K,Y217F)–GlyR) (Homo sapiens, UniProt P23415+P36544, G175K/L141G/Y217F); experiment: Membrane potential assay, coca-GlyR in HEK293; format: cell-based; conditions: coca-GlyR; for Max normalized AVG: AVG of DRs
T1 construct: expressed in transfected cells; host or cells: HEK293 (ATCC CRL-1573), pcDNA3.1
T1 sequence (P36544+P23415 fused P36544:L141G/P36544:G175K/P36544:Y217F): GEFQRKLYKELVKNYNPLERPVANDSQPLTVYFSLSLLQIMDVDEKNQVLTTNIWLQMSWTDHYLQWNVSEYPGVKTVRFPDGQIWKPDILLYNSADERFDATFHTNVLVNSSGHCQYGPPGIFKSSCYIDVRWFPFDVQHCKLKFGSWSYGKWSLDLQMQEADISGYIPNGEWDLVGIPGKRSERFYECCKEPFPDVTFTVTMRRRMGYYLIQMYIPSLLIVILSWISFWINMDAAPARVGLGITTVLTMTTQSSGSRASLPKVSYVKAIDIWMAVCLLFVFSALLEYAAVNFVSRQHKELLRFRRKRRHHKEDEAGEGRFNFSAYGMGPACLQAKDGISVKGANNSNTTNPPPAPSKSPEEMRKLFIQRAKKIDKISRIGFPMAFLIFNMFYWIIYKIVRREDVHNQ

unmodified α7–5HT3 = molecular target: T2, unmodified α7–5HT3 (UniProt P23979+P36544, M226I/T225I); experiment: Membrane potential assay, unmodified α7–5HT3; format: cell-based, human α7 nAChR LBD, mouse 5HT3 IPD; conditions: a7-5Ht3; for Max normalized AVG: AVG of DR 1-3; for Max normalized, single replicate: relative to ACh max of the DR
T2 construct: expressed in transfected cells; host or cells: HEK293 (ATCC CRL-1573), pcDNA3.1
T2 sequence (P36544+P23979 fused P36544:T225I/P36544:M226I): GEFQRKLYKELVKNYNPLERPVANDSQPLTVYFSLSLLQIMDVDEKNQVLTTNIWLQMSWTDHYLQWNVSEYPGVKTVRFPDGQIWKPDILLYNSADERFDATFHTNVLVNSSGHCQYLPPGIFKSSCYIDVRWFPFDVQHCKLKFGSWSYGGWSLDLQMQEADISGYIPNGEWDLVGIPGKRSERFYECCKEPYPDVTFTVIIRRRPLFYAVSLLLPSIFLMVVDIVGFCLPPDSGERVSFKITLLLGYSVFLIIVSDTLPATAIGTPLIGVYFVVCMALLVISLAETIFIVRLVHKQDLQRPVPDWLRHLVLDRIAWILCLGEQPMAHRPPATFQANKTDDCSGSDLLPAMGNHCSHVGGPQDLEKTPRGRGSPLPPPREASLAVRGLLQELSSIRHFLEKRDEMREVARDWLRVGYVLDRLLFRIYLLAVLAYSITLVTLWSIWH

unmodified α7–GlyR = molecular target: T3, unmodified α7–GlyR (Homo sapiens, UniProt P23415+P36544); experiment: Membrane potential assay, unmodified α7–GlyR; format: cell-based; conditions: a7-GlyR
T3 construct: expressed in transfected cells; host or cells: HEK293 (ATCC CRL-1573), pcDNA3.1
T3 sequence (P36544+P23415 fused): as the sequence (P36544+P23415 fused P36544:L141G/P36544:G175K/P36544:Y217F) above, with G119L, K153G, F195Y counted along it

[2] = tested on: coca-5HT3 in cultured hippocampal neurons; experiment: Current-clamp of cultured hippocampal neurons expressing coca-5HT3; format: cell-based, rat; conditions: coca-5HT3; coc (3 uM) relative to pre; unlabelled mean line
[3] = tested on: hippocampal neurons expressing GFP; experiment: Current-clamp of control cultured hippocampal neurons expressing GFP; format: cell-based, rat; conditions: GFP; 3 uM relative to PRE; unlabelled mean line
[4] = molecular target: coca-5HT3 (α7(L141G,G175K,Y210F,Y217F)–5HT3) (Homo sapiens, UniProt P36544, G175K/L141G/Y210F/Y217F); experiment: Membrane potential assay, coca-5HT3 in HEK293; conditions: coca-5HT3; for Max normalized AVG: AVG of DRs
coca-5HT3 (α7(L141G,G175K,Y210F,Y217F)–5HT3), sequence (P36544 23-224 L141G/G175K/Y210F/Y217F): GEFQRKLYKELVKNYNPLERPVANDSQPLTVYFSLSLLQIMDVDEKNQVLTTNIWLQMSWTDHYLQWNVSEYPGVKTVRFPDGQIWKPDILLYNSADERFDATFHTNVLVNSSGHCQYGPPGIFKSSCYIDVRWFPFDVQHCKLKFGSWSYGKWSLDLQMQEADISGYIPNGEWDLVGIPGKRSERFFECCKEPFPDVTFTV
coca-5HT3 (α7(L141G,G175K,Y210F,Y217F)–5HT3), sequence (P23979 242-489, further chain): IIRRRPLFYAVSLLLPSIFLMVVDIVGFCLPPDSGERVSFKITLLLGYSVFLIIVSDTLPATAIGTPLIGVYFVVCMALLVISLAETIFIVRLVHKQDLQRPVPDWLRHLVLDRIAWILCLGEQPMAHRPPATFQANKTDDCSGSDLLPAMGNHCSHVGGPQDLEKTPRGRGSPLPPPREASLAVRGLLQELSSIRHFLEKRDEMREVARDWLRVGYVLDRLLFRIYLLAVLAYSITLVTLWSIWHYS

COC(=O)[C@H]1[C@@H](OC(=O)c2ccccc2)C[C@@H]2CC[C@H]1N2C [coc]
DR response, single replicate ([1]; [coc] 0.0137174): 0.056 and 0.038 and 0.023 and 0.039 and 0.008 and 0.041 | Max normalized, single replicate ([1]; [coc] 0.0137174): 0.03823 and 0.06336 and 0.05409 and 0.0128 and 0.05758 and 0.03944 | Max normalized AVG ([1]; [coc] 0.0137174): 0.03793 | DR response, single replicate ([1]; [coc] 0.0411523): 0.06 and 0.037 and 0.017 and 0.078 and 0.025 and 0.015 and 0.049 | Max normalized, single replicate ([1]; [coc] 0.0411523): 0.03722 and 0.04683 and 0.05159 and 0.03467 and 0.024 and 0.06882 and 0.04225 | Max normalized AVG ([1]; [coc] 0.0411523): 0.04363 | DR response, single replicate ([1]; [coc] 0.123457): 0.034 (2×) and 0.037 and 0.031 and 0.077 and 0.02 and 0.024 | Max normalized, single replicate ([1]; [coc] 0.123457): 0.03722 and 0.0854 and 0.05093 and 0.02774 and 0.0384 and 0.04775 and 0.02394 | Max normalized AVG ([1]; [coc] 0.123457): 0.04448 | DR response, single replicate ([1]; [coc] 0.37037): 0.097 and 0.151 and 0.076 and 0.133 and 0.062 and 0.045 and 0.065 | Max normalized, single replicate ([1]; [coc] 0.37037): 0.1519 and 0.2094 and 0.08796 and 0.08599 and 0.072 and 0.09129 and 0.06831 | Max normalized AVG ([1]; [coc] 0.37037): 0.1095 | DR response, single replicate ([1]; [coc] 1.11111): 0.511 and 0.61 and 0.222 and 1.095 and 0.27 and 0.244 and 0.282 | Max normalized, single replicate ([1]; [coc] 1.11111): 0.6137 and 0.6116 and 0.7242 and 0.3745 and 0.3904 and 0.3961 and 0.3599 | Max normalized AVG ([1]; [coc] 1.11111): 0.4958 | DR response, single replicate ([1]; [coc] 3.33333): 1.226 and 0.859 and 0.343 and 1.133 and 0.644 and 0.538 and 0.653 | Max normalized, single replicate ([1]; [coc] 3.33333): 0.8642 and 0.9449 and 0.7493 and 0.8932 and 0.8608 and 0.9171 and 0.8634 | Max normalized AVG ([1]; [coc] 3.33333): 0.8704 | DR response, single replicate ([1]; [coc] 10): 1.42 and 0.941 and 1.448 and 0.721 and 0.62 and 0.712 | Max normalized, single replicate ([1]; [coc] 10): 0.9467 and 1 (4×) and 0.9577 and 0.992 | Max normalized AVG ([1]; [coc] 10): 0.9852 | DR response, single replicate ([1]; [coc] 30): 1.327 and 0.994 and 1.512 and 0.592 and 0.625 | Max normalized, single replicate ([1]; [coc] 30): 1 (3×) and 0.8211 and 0.9345 | Max normalized AVG ([1]; [coc] 30): 0.9511 | max (DR response of the replicate) ([1]; largest response of each DR): 1.42 and 0.994 and 0.363 and 1.512 and 0.721 and 0.625 and 0.712 | DR response, single replicate (unmodified α7–5HT3; concentration 0.0457247): 0.035 and 0.029 and 0.04 | Max normalized AVG (unmodified α7–5HT3; concentration 0.0457247): 0.03558 | Max normalized, single replicate (unmodified α7–5HT3; concentration 0.0457247): 0.02736 and 0.03711 and 0.04227 | DR response, single replicate (unmodified α7–5HT3; concentration 0.137174): 0.031 and 0.062 and 0.034 | Max normalized AVG (unmodified α7–5HT3; concentration 0.137174): 0.04249 | Max normalized, single replicate (unmodified α7–5HT3; concentration 0.137174): 0.05849 and 0.03154 and 0.03744 | DR response, single replicate (unmodified α7–5HT3; concentration 0.411523): 0.023 and 0.07 and 0.034 | Max normalized AVG (unmodified α7–5HT3; concentration 0.411523): 0.04179 | Max normalized, single replicate (unmodified α7–5HT3; concentration 0.411523): 0.06604 and 0.03154 and 0.02778 | DR response, single replicate (unmodified α7–5HT3; concentration 1.23457): 0.031 and 0.038 and 0.043 | Max normalized AVG (unmodified α7–5HT3; concentration 1.23457): 0.03773 | Max normalized, single replicate (unmodified α7–5HT3; concentration 1.23457): 0.03585 and 0.03989 and 0.03744 | DR response, single replicate (unmodified α7–5HT3; concentration 3.7037): 0.019 and 0.031 and 0.039 | Max normalized AVG (unmodified α7–5HT3; concentration 3.7037): 0.02946 | Max normalized, single replicate (unmodified α7–5HT3; concentration 3.7037): 0.02925 and 0.03618 and 0.02295 | DR response, single replicate (unmodified α7–5HT3; concentration 11.1111): 0.036 and 0.037 and 0.017 | Max normalized AVG (unmodified α7–5HT3; concentration 11.1111): 0.03138 | Max normalized, single replicate (unmodified α7–5HT3; concentration 11.1111): 0.03491 and 0.01577 and 0.04348 | DR response, single replicate (unmodified α7–5HT3; concentration 33.3333): 0.037 and 0.071 and 0.05 | Max normalized AVG (unmodified α7–5HT3; concentration 33.3333): 0.05268 | Max normalized, single replicate (unmodified α7–5HT3; concentration 33.3333): 0.06698 and 0.04638 and 0.04469 | DR response, single replicate (unmodified α7–5HT3; concentration 100): 0.055 and 0.086 and 0.089 | Max normalized AVG (unmodified α7–5HT3; concentration 100): 0.07671 | Max normalized, single replicate (unmodified α7–5HT3; concentration 100): 0.08113 and 0.08256 and 0.06643 | DR response, single replicate (unmodified α7–GlyR; concentration 0.0457247): 0.05 and 0.083 and 0.071 | DR response, single replicate (unmodified α7–GlyR; concentration 0.137174): 0.031 and 0.061 and 0.045 | DR response, single replicate (unmodified α7–GlyR; concentration 0.411523): 0.036 and 0.075 and 0.045 | DR response, single replicate (unmodified α7–GlyR; concentration 1.23457): 0.032 and 0.049 and 0.043 | DR response, single replicate (unmodified α7–GlyR; concentration 3.7037): 0.027 and 0.033 and 0.028 | DR response, single replicate (unmodified α7–GlyR; concentration 11.1111): 0.032 and 0.038 and 0.034 | DR response, single replicate (unmodified α7–GlyR; concentration 33.3333): 0.046 and 0.052 and 0.049 | DR response, single replicate (unmodified α7–GlyR; concentration 100): 0.053 and 0.079 (2×) | Rheobase Normalized, mean of cells [2]: 0.5604 | Rheobase Normalized, mean of cells [3]: 1.094 | DR response, single replicate ([4]; [coc] 0.0137174): 0.067 and 0.015 and 0.01 and 0.009 and 0.046 and 0.1 and 0.014 | Max normalized, single replicate ([4]; [coc] 0.0137174): 0.01571 and 0.04202 and 0.03502 and 0.04968 and 0.07513 and 0.01777 and 0.06549 | Max normalized AVG ([4]; [coc] 0.0137174): 0.04297 | DR response, single replicate ([4]; [coc] 0.0411523): 0.051 and 0.054 and 0.011 and 0.02 and 0.076 and 0.06 and 0.008 and 0.009 | Max normalized, single replicate ([4]; [coc] 0.0411523): 0.05654 and 0.04622 and 0.07782 and 0.08207 and 0.04508 and 0.01015 and 0.007098 and 0.04985 | Max normalized AVG ([4]; [coc] 0.0411523): 0.04686 | DR response, single replicate ([4]; [coc] 0.123457): 0.063 and 0.015 and 0.01 and 0.013 (2×) and 0.056 and 0.037 and 0.035 | Max normalized, single replicate ([4]; [coc] 0.123457): 0.01571 and 0.04202 and 0.05058 and 0.06048 and 0.0278 and 0.04442 and 0.01025 and 0.06158 | Max normalized AVG ([4]; [coc] 0.123457): 0.0391 | DR response, single replicate ([4]; [coc] 0.37037): 0.098 and 0.161 and 0.012 and 0.019 and 0.144 and 0.109 and 0.122 and 0.014 | Max normalized, single replicate ([4]; [coc] 0.37037): 0.1686 and 0.05042 and 0.07393 and 0.1555 and 0.08189 and 0.1548 and 0.01104 and 0.0958 | Max normalized AVG ([4]; [coc] 0.37037): 0.099 | DR response, single replicate ([4]; [coc] 1.11111): 0.363 and 0.54 and 0.108 and 0.033 and 0.699 and 0.66 and 0.506 and 0.355 | Max normalized, single replicate ([4]; [coc] 1.11111): 0.5654 and 0.4538 and 0.1284 and 0.7549 and 0.4959 and 0.6421 and 0.28 and 0.3548 | Max normalized AVG ([4]; [coc] 1.11111): 0.4594 | DR response, single replicate ([4]; [coc] 3.33333): 0.825 and 0.861 and 0.191 and 0.144 and 0.926 and 1.093 and 0.788 and 0.762 | Max normalized, single replicate ([4]; [coc] 3.33333): 0.9016 and 0.8025 and 0.5603 and 1 (2×) and 0.8212 and 0.6009 and 0.8065 | Max normalized AVG ([4]; [coc] 3.33333): 0.8116 | DR response, single replicate ([4]; [coc] 10): 1.023 and 0.955 and 0.229 and 0.257 and 0.908 and 1.331 and 0.736 and 1.159 | Max normalized, single replicate ([4]; [coc] 10): 1 (4×) and 0.9622 and 0.9806 and 0.934 and 0.914 | Max normalized AVG ([4]; [coc] 10): 0.9738 | DR response, single replicate ([4]; [coc] 30): 0.864 and 0.903 and 0.238 and 0.251 and 1.268 | Max normalized, single replicate ([4]; [coc] 30): 0.9456 and 1 (2×) and 0.9767 and 0.8446 | Max normalized AVG ([4]; [coc] 30): 0.9534 | max (DR response of the replicate) ([4]; largest response of each DR): 1.023 and 0.955 and 0.238 and 0.257 and 0.926 and 1.331 and 0.788 and 1.268
